Source: patent US7115544B2, “Plant growth regulators for cotton hervest” (Sumitomo Chemical Company, Limited, priority 2001, dated 2006)
Each block holds one compound with its values, some of them ahead of it.

Legend:
cotton plants = test: Field test on cotton plants at boll opening: defoliation ratio and boll opening after foliar spray; assay type: in vivo; settings: for Defoliation ratio (%) Rep. 1 / Defoliation ratio (%) Rep. 2 / Defoliation ratio (%) Rep. 3: 20 g/ha, emulsifiable concentrate diluted with water containing 1% (v/v) COC, day 14 after the treatment; for Defoliation ratio (%) Rep. 1: replication 1 about 60% of open bolls; for Defoliation ratio (%) Rep. 2: replication 2 about 60 to 70% of open bolls; for Defoliation ratio (%) Rep. 3: replication 3 80 to 85% of open bolls; for cotton boll opening: field test, sprayed at the time of cotton boll opening
Procedure: The test results were evaluated according to the following criteria: Defoliation ratio (%)=(the number of dropped leaves/the total number of leaves examined)×100
Cotton seeds were planted and grown in the field. At the time of cotton boll opening, 2.5 parts of each of compounds […], 10 parts of Sorpol 3890 (Toho Chemical Industry Co., Ltd.), and 87.5 parts of SOLVESSO 200 (Exxon Mobile Chemical Company) were well mixed to give an emulsifiable concentrate for each compound, which was then diluted at a prescribed dose with water containing 1% (v/v) crop oil concentrate (COC), and the dilution was uniformly sprayed to the plants. Treatments were carried out with three replications. Replication 1 had about 60% of open bolls; replication 2 had about 60 to 70% of open bolls; replication 3 had 80 to 85% of open boils. The treated fields are each 4 m×6.4 m in area, and the cotton plants on day 14 after the treatment were examined for the defoliation ratio.

Structure (SMILES): COC(=O)COc1ncccc1Oc1cc(-n2c(=O)cc(C(F)(F)F)n(C)c2=O)c(F)cc1Cl [Compound a-6, methyl [3-{2-chloro-4-fluoro-5-[3-methyl-2,6-dioxo-4-(trifluoromethyl)-1,2,3,6-tetrahydropyrimidin-1-yl]phenoxy}-2-pyridyloxy]acetate]
Defoliation ratio (%) Rep. 1 (cotton plants): 80%
Defoliation ratio (%) Rep. 2 (cotton plants): 75%
Defoliation ratio (%) Rep. 3 (cotton plants): 85%
cotton boll opening (cotton plants): stimulated cotton boll opening

Structure (SMILES): COC(=O)COc1ccccc1Oc1cc(-n2c(=O)cc(C(F)(F)F)n(C)c2=O)c(F)cc1Cl [Compound a-5, methyl [2-{2-chloro-4-fluoro-5-[3-methyl-2,6-dioxo-4-(trifluoromethyl)-1,2,3,6-tetrahydropyrimidin-1-yl]phenoxy}phenoxy]acetate]
Defoliation ratio (%) Rep. 1 (cotton plants): 85%
Defoliation ratio (%) Rep. 2 (cotton plants): 90%
Defoliation ratio (%) Rep. 3 (cotton plants): 82%
cotton boll opening (cotton plants): stimulated cotton boll opening

melting point: 55.6 °C
Structure (SMILES): Cn1c(C(F)(F)F)cc(=O)n(-c2cc(Oc3ccccc3OCC(=O)OC(C)(C)C)c(Cl)cc2F)c1=O [Compound a-121, t-butyl [2-{2-chloro-4-fluoro-5-[3-methyl-2,6-dioxo-4-(trifluoromethyl)-1,2,3,6-tetrahydropyrimidin-1-yl]phenoxy}phenoxy]acetate]
